Reference: patent US20100286082A1, “RIBOSWITCHES AND METHODS AND COMPOSITIONS FOR USE OF AND WITH RIBOSWITCHES” (Yale University, priority 2007, published 2010)
Where “and” joins values, the source holds several entries; their conditions need not be identical. Equal entries are not always repeated.

What was measured:
68 metH RNA [1] = assay: In-line probing of 68 metH RNA (SAH aptamer); type: binding, Dechloromonas aromatica; conditions: for modulation of the RNA structure: concentrations as high as 1 mM
Method: iii. In-Line Probing Analysis In-line probing assays were carried out essentially as previously described (Soukup and Breaker, 1999). 5′^32P-labeled RNAs were incubated at room temperature for approximately 40 h in 10 μl volumes containing 50 mM Tris-HCl (pH 8.3 at 25° C.), 20 mM MgCl2, 100 mM KCl, and included test compounds at the concentrations indicated. Spontaneous cleavage products were separated by denaturing 10% PAGE, visualized using a Phosphorlmager (Molecular Dynamics), and quantified using SAFA v1.1 software (Das et al., 2005). The amount of RNA cleaved at each nucleotide position was obtained from SAFA analysis, which automatically determines reference nucleotide positions with invariant levels of spontaneous cleavage to correct for different amounts loaded in each lane. Individual band intensities at each modulated site were summed and normalized to obtain values for the fraction of RNA that was structurally modulated, assuming that there was no modulation in the absence of ligand and maximal modulation in the presence of the highest concentration of ligand. Values for the apparent dissociation constant (KD) were determined by fitting the plot of the fraction modulated (F), versus the ligand concentration, [L], at all three indicated modulation sites to the equation F [L]/([L]+KD) using SigmaPlot 9 software (Systat Software, Inc.).

[2] = target: SAM-I riboswitch 124 yitJ; assay: SAM-I riboswitch binding (literature); conditions: ratio of the KD for the compound to that for SAM
68 metH RNA [3] = assay: Equilibrium dialysis of [3H]SAM with 68 metH RNA; type: binding, Dechloromonas aromatica
Method: (§1) The chambers were separated by a permeable membrane with a molecular weight cut-off of 5000 Daltons.
(§2) Equilibrium dialysis was performed by delivering 20 μl samples to each side of a Dispo-Equilibrium Biodialyzer (The Nest Group, Inc., Southboro, Mass., USA) wherein the separation between chambers is maintained by a dialysis membrane with a 5000 Dalton molecular weight cut-off. One chamber contained a buffer solution comprised of 100 mM Tris-HCl (pH 8.3 at 24° C.), 20 mM MgCl2, 100 mM KCl, plus 100 nM [^3H]SAM.

[4] = target: SAM-I riboswitch 124 yitJ; conditions: calculated previously (Lim et al. 2006); read-out: KD [compound] (nM) SAM-I; cited from earlier work
SAM-II aptamer 156 metA [5] = conditions: Corbino et al., 2005; read-out: apparent KD for SAM; cited from earlier work
[6] = target: 132 Sc RNA (SAM-IV riboswitch); assay: In-line probing of 132 Sc RNA (SAM-IV); type: binding, Streptomyces coelicolor
Source text: DNA corresponding to the aptamer in the pEZ35 plasmid (above) was amplified by PCR with primers 5′-[…]

SAM-II aptamer 156 metA [7] = conditions: 10 µM RNA, 100 nM [3H]SAM
Method: as §1, §2

17-90 RNA = assay: In-line probing of 17-90 RNA (preQ1-II aptamer); type: binding, Streptococcus pneumoniae R6; conditions: for Kd: read-out: apparent KD; for binding by 17-90 RNA: compound concentrations up to 1 mM
[8] = target: Escherichia coli PilZ protein domain (Escherichia coli, UniProt P76010); conditions: Ryjenkov 2006; cited from earlier work
[9] = target: 110 Vc2 RNA (Vc2 aptamer, GEMM RNA); assay: In-line probing of 110 Vc2 RNA (cyclic di-GMP aptamer); type: binding, Vibrio cholerae
Method: In-line probing assays were performed using methods similar to those described previously (Soukup 1999). Briefly, 5′^32P-labeled RNAs (˜[…] for cyclic di-GMP KD analysis, ˜5 nM for all other analyses) were incubated at 23° C. for approximately 40 hours in 20 mM MgCl2, 100 mM KCl, and 50 mM Tris (pH 8.3 at 23° C.) with the indicated compounds. RNA cleavage products were separated by denaturing 10% PAGE, visualized using a Phosphorimager (Molecular Dynamics), and analyzed using SAFA v1.1 software (Das 2005) or ImageQuant (Molecular Dynamics). SAFA software was used to normalize to correct for differences in the amounts of RNA loaded to each lane and to determine the intensity of each band.
To determine the KD of 110 Vc2 for cyclic di-GMP, in-line probing was conducted as described above with various concentrations of cyclic di-GMP. Due to the use of an exceptionally low concentration of radiolabeled 110 Vc2 RNA, the samples loaded were supplemented with additional unlabeled RNA that had been separately subjected to in-line probing. […] Dissociation constants (KD) were determined using ImageQuant software (Molecular Dynamics) to compare individual band intensities at sites of structural modulation assuming that there was no modulation in the absence of ligand and complete modulation in the presence of the highest ligand concentration tested. […]

[10] = Kinetics of cyclic di-GMP degradation under in-line probing conditions; type: physicochemical; conditions: in-line probing buffer, pH 8.3 at 23° C., 100 mM KCl, 20 mM MgCl2
Method: A solution of 500 μM cyclic di-GMP was incubated in the presence of in-line probing buffer (50 mM Tris-HCl [pH 8.3 at 23° C.], 100 mM KCl, 20 mM MgCl2) for varying amounts of time. The reactions were initiated by the addition of cyclic di-GMP and quenched when a 10 μL aliquot was injected onto an Agilent Technologies 1200 series HPLC equipped with an Agilent Zorbax Oligo column (5 μM, 6.2 mm×80 mm). The compounds were eluted using a gradient mobile phase composed of 95% 0.1 M NaHPO4 [pH 6.0 at 23° C.] and 5% acetonitrile to 100% 1 M NaCl. The absorbance was monitored at 254 nm. A rate constant for cyclic di-GMP was established by plotting the natural logarithm of the fraction of the cyclic di-GMP remaining uncleaved versus time, wherein the negative slope of the resulting line reflects the rate constant.

[11] = system: wild-type 149 moaA RNA (Moco RNA)-lacZ reporter fusion; assay: β-galactosidase reporter assay of 149 moaA RNA fusion; type: cell-based, Escherichia coli; conditions: modC deletion strain, LB supplemented with 10 mM compound
Source text: These sequences were cloned into a translational fusion plasmid upstream of, and in-frame with β-galactosidase reporter gene. The fusion was placed under the control of a constitutively active lacUV5 promoter to eliminate the effects of upstream anaerobic- and molybdate-dependent promoter regulation that naturally restricts expression of the moaA operon. This series of plasmids was placed in a strain of E. coli wherein the moaA gene was deleted. The resulting transformants were transformed with a plasmid containing the moaABCDE operon under the control of an arabinose-inducible and glucose-repressible promoter (Guzman et al., 1995). These doubly transformed strains enabled us to determine the role of the 149 moaA RNA on reporter gene expression when Moco concentrations are either high or low.
To determine whether molybdate is critical for gene regulation by 149 moaA RNA, a modC knockout strain of E. coli was conducted to eliminate high affinity molybdate transporter function. This strain was then transformed with the moaABCDE inducible expression plasmid and the wild-type and mutant 149 moaA reporter fusion plasmids.
To measure gene expression from lacZ in the wild-type and mutant reporter strains of E. coli, the cells were grown in a 14 mL culture vial with shaking overnight at 37° C. in 3 mL of LB with supplementation as indicated. […]

Chain of Escherichia coli PilZ protein domain (P76010 whole entry, the tested form may be a part): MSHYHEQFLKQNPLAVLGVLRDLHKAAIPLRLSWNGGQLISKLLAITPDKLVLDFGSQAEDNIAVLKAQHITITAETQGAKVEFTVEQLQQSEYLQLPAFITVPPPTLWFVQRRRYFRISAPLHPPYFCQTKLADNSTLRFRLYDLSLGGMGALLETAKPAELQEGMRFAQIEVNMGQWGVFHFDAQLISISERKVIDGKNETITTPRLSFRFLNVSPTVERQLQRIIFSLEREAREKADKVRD

With `N[C@@H](CCS)C(=O)O` [homocysteine] the “modulation of the RNA structure” value (68 metH RNA [1]) was “neither homocysteine nor methionine cause any modulation of the RNA structure”.
For `C[S+](CC[C@H](N)C(=O)[O-])C[C@H]1O[C@@H](n2cnc3c(N)ncnc32)[C@H](O)[C@@H]1O` (stereo partly drawn) [SAM, S-adenosyl-L-methionine], the “apparent KD relative to apparent KD for SAH” value (68 metH RNA [1]; in-line probing, commercial SAM (contains ~10% SAH)) was “no more than 10 fold”, the “KD [compound]/ KD [SAM] SAM-I” value [2] was 1 and the “discrimination against SAM” value (68 metH RNA [3]; SAH versus SAM) was ~3 orders of magnitude. For the same compound, the Kd (68 metH RNA [3]; equilibrium dialysis, 25 μM 68 metH RNA) was ≥ 25000 nM, the Kd [4] was 5 nM and the Kd (SAM-II aptamer 156 metA [5]) was ~1000 nM. For the same compound, the Kd ([6]; in-line probing, 132 Sc RNA, read-out: KD [compound] (nM) SAM-IV) was 150 nM and ~150 nM and the “KD [compound]/ KD [SAM] SAM-IV” value ([6]; ratio of the KD for the compound to that for SAM) was 1.
With `C[S+](CC[C@H](N)C(=O)O)C[C@H]1O[C@@H](n2cnc3c(N)ncnc32)[C@H](O)[C@@H]1O` (stereo partly drawn) [[^3H]SAM, S-(5′-adenosyl)-L-methionine-(methyl-3H)] the “shift of the distribution of [3H]SAM to the RNA chamber” value (68 metH RNA [3]; 10 µM RNA, 100 nM [3H]SAM) was “no shift” and the “shift of the distribution of [3H]SAM to the RNA chamber” value (SAM-II aptamer 156 metA [7]) was ~1.5 fold.
`N#CC1C=Nc2nc(N)[nH]c(=O)c21` (stereo not drawn) [preQ0, 7-cyano-7-deazaguanine] showed a Kd (17-90 RNA) of ~500 nM.
In the case of `CSCC[C@H](N)C(=O)O` [methionine, L-methionine], the “modulation of the RNA structure” value (68 metH RNA [1]) is reported as “neither homocysteine nor methionine cause any modulation of the RNA structure”.
For `Nc1nc2c(ncn2[C@@H]2O[C@@H]3COP(=O)(O)O[C@H]4[C@@H](O)[C@H](n5cnc6c(=O)[nH]c(N)nc65)O[C@@H]4COP(=O)(O)O[C@H]3[C@H]2O)c(=O)[nH]1` [cyclic di-GMP], the Kd [8] is given as 840 nM, the Kd ([9]; in-line probing with various cyclic di-GMP concentrations, read-out: apparent dissociation constant (KD)) is given as ~1 nM and the “rate constant for spontaneous cleavage” value [10] is given as 3.2e-06 min⁻¹.
In the case of `Nc1ncc2[nH]cnc2n1` [2-aminopurine], the “binding by 17-90 RNA” value (17-90 RNA) is reported as “no binding is detected”.
In the case of `[Na+].[Na+].[O]=[W](=[O])([O-])[O-]` [sodium tungstate], the “reporter gene expression of WT 149 moaA reporter fusion” value [11] is reported as “becomes derepressed”.
With `CN(C)Cc1c[nH]c2nc(N)[nH]c(=O)c12` [dimethylaminomethyl analog, 7-(N,N″-dimethylaminomethyl)-7-deazaguanine] the Kd (17-90 RNA) was ~500 nM.
With `[Na+].[Na+].[O]=[Mo](=[O])([O-])[O-]` [sodium molybdate] the “reporter gene expression of WT 149 moaA reporter fusion” value [11] was “expression is repressed”.
With `Cn1cnc2nc(N)[nH]c(=O)c21` [7-methylguanine] the “binding by 17-90 RNA” value (17-90 RNA) was “lack of 7-methylguanine binding”.
For `Nc1nc2c(c(=O)[nH]1)CC=N2` [7-deazaguanine], the “binding by 17-90 RNA” value (17-90 RNA) was “bound with only a slightly better affinity”.
In the case of `Nc1ncnc2c1ncn2[C@@H]1O[C@H](CSC[C@H](N)C(=O)O)[C@@H](O)[C@H]1O` [SAC, S-adenosylcysteine], the “loss of affinity relative to SAH” value (68 metH RNA [1]; in-line probing) is reported as “only a modest loss of affinity”.
In the case of `Nc1nc2c(ncn2[C@@H]2O[C@H](COP(=O)(O)O)[C@@H](O)[C@H]2O)c(=O)[nH]1` [pG], the “binding by the aptamer” value ([9]; concentration five orders of magnitude higher than the KD for cyclic di-GMP) is reported as “not bound by the aptamer”.
